Source: the NIST ThermoML archive (doi:10.1021/acs.jced.8b00157)
Several values for one entry are separate records, joined by “and”; a condition that tells them apart may be missing. Equal entries are not always repeated.

Experiment: an = ratio of the nth substance listed
Details: 100 kPa, Liquid, Buoyancy - hydrostatic balance

[F][Al]([F])[F] [aluminum fluoride] + [F-].[K+]
mass density
Details | a2 = 1.3 | a2 = 1.5
1013.8 K | 1821 kg/m3 | –
1014 K | 1822 kg/m3 | –
1014.2 K | 1821 kg/m3 | –
1014.4 K | 1822 kg/m3 | –
1014.5 K | 1822 kg/m3 | –
1014.9 K | 1821 kg/m3 | –
1015.1 K | 1821 kg/m3 | –
1015.2 K | 1820 kg/m3 and 1821 kg/m3 | –
1015.3 K | 1822 kg/m3 | –
1015.5 K | 1821 kg/m3 | –
1015.7 K | 1820 kg/m3 | –
1016.1 K | 1819 kg/m3 | –
1016.3 K | 1820 kg/m3 | –
1016.5 K | 1819 kg/m3 | –
1016.7 K | 1819 kg/m3 | –
1016.8 K | 1819 kg/m3 | –
1017 K | 1818 kg/m3 | –
1017.4 K | 1818 kg/m3 | –
1017.8 K | 1819 kg/m3 | –
1018 K | 1818 kg/m3 | –
1018.1 K | 1818 kg/m3 | –
1018.2 K | 1819 kg/m3 | –
1018.4 K | 1819 kg/m3 and 1816 kg/m3 | –
1018.5 K | 1818 kg/m3 | –
1018.6 K | 1817 kg/m3 | –
1018.9 K | 1816 kg/m3 | –
1019.5 K | 1818 kg/m3 | –
1019.7 K | 1816 kg/m3 | –
1019.8 K | 1817 kg/m3 | –
1019.9 K | 1817 kg/m3 and 1815 kg/m3 and 1816 kg/m3 | –
1020.3 K | 1816 kg/m3 | –
1020.5 K | 1815 kg/m3 | –
1020.8 K | 1815 kg/m3 | –
1021 K | 1816 kg/m3 | –
1021.1 K | 1816 kg/m3 | –
1021.2 K | 1814 kg/m3 | –
1021.4 K | 1815 kg/m3 | –
1021.7 K | 1816 kg/m3 and 1815 kg/m3 | –
1022 K | 1813 kg/m3 | –
1022.1 K | 1815 kg/m3 | –
1022.6 K | 1815 kg/m3 | –
1022.8 K | 1813 kg/m3 | –
1022.9 K | 1812 kg/m3 | –
1023 K | 1814 kg/m3 | –
1023.1 K | 1814 kg/m3 | –
1023.2 K | 1814 kg/m3 | –
1023.4 K | 1813 kg/m3 | –
1023.7 K | 1812 kg/m3 | –
1024 K | 1813 kg/m3 | –
1024.1 K | 1812 kg/m3 | –
1024.4 K | 1812 kg/m3 | –
1024.9 K | 1813 kg/m3 and 1811 kg/m3 | –
1025 K | 1811 kg/m3 | –
1025.2 K | 1813 kg/m3 | –
1025.6 K | 1810 kg/m3 | –
1025.7 K | 1810 kg/m3 | –
1025.8 K | 1812 kg/m3 | –
1026 K | 1812 kg/m3 | –
1026.2 K | 1812 kg/m3 | –
1026.4 K | 1810 kg/m3 | –
1026.5 K | 1809 kg/m3 | –
1026.6 K | 1810 kg/m3 | –
1026.7 K | 1811 kg/m3 | –
1026.9 K | 1809 kg/m3 | –
1027.1 K | 1810 kg/m3 | –
1027.2 K | 1808 kg/m3 | –
1027.3 K | 1811 kg/m3 | –
1027.4 K | 1808 kg/m3 | –
1027.5 K | 1809 kg/m3 | –
1027.9 K | 1809 kg/m3 | –
1028 K | 1809 kg/m3 | –
1028.1 K | 1809 kg/m3 | –
1028.3 K | 1807 kg/m3 | –
1028.6 K | 1807 kg/m3 | –
1028.7 K | 1807 kg/m3 | –
1028.9 K | 1808 kg/m3 | –
1029.1 K | 1806 kg/m3 | –
1029.3 K | 1807 kg/m3 and 1808 kg/m3 | –
1029.4 K | 1807 kg/m3 | –
1029.8 K | 1806 kg/m3 | –
1030.3 K | 1806 kg/m3 | –
1030.6 K | 1807 kg/m3 and 1806 kg/m3 | –
1030.9 K | 1805 kg/m3 | –
1031.1 K | 1806 kg/m3 and 1804 kg/m3 | –
1031.5 K | 1804 kg/m3 | –
1031.7 K | 1805 kg/m3 and 1806 kg/m3 | –
1031.8 K | 1805 kg/m3 | –
1032.3 K | 1803 kg/m3 | –
1032.5 K | 1805 kg/m3 | –
1032.6 K | 1803 kg/m3 | –
1032.7 K | 1804 kg/m3 | –
1032.9 K | 1804 kg/m3 | –
1033.1 K | 1803 kg/m3 | –
1033.3 K | 1803 kg/m3 and 1804 kg/m3 | –
1033.5 K | 1803 kg/m3 | –
1033.7 K | 1801 kg/m3 and 1802 kg/m3 | –
1033.8 K | 1803 kg/m3 | –
1033.9 K | 1804 kg/m3 | –
1034.1 K | 1802 kg/m3 | –
1034.5 K | 1801 kg/m3 | –
1034.8 K | 1802 kg/m3 and 1801 kg/m3 | –
1034.9 K | 1802 kg/m3 | –
1035.3 K | 1801 kg/m3 and 1800 kg/m3 | –
1035.6 K | 1800 kg/m3 | –
1035.7 K | 1799 kg/m3 | –
1036.4 K | 1799 kg/m3 | –
1036.6 K | 1801 kg/m3 and 1798 kg/m3 | –
1037 K | 1799 kg/m3 | –
1037.1 K | 1801 kg/m3 | –
1037.5 K | 1797 kg/m3 | –
1037.7 K | 1798 kg/m3 | –
1038.1 K | 1800 kg/m3 and 1797 kg/m3 | –
1038.2 K | 1799 kg/m3 | –
1038.4 K | 1796 kg/m3 | –
1038.5 K | 1799 kg/m3 | –
1038.6 K | 1799 kg/m3 | –
1038.9 K | 1799 kg/m3 | –
1039 K | 1796 kg/m3 | –
1039.4 K | 1799 kg/m3 | –
1039.6 K | 1795 kg/m3 | –
1039.8 K | 1795 kg/m3 | –
1039.9 K | 1798 kg/m3 | –
1040.1 K | 1795 kg/m3 | –
1040.4 K | 1795 kg/m3 | –
1040.6 K | 1798 kg/m3 and 1795 kg/m3 | –
1040.8 K | 1798 kg/m3 | –
1040.9 K | 1797 kg/m3 | –
1041 K | 1796 kg/m3 and 1797 kg/m3 | –
1041.2 K | 1795 kg/m3 | –
1042.1 K | 1796 kg/m3 | –
1042.3 K | 1794 kg/m3 | –
1042.5 K | 1796 kg/m3 | –
1042.8 K | 1793 kg/m3 and 1794 kg/m3 | –
1042.9 K | 1792 kg/m3 and 1794 kg/m3 | –
1043 K | 1793 kg/m3 | –
1043.1 K | 1795 kg/m3 | –
1043.4 K | 1795 kg/m3 | –
1043.7 K | 1795 kg/m3 | –
1043.8 K | 1794 kg/m3 | –
1043.9 K | 1794 kg/m3 and 1791 kg/m3 | –
1044.3 K | 1791 kg/m3 | –
1044.4 K | 1791 kg/m3 | –
1045 K | 1793 kg/m3 | –
1045.3 K | 1793 kg/m3 and 1790 kg/m3 | –
1045.4 K | 1789 kg/m3 | –
1045.6 K | 1792 kg/m3 | –
1045.8 K | 1793 kg/m3 | –
1046.1 K | 1793 kg/m3 | –
1046.3 K | 1789 kg/m3 | –
1046.5 K | 1789 kg/m3 | –
1046.7 K | 1792 kg/m3 and 1789 kg/m3 | –
1046.9 K | 1789 kg/m3 | –
1047 K | 1789 kg/m3 | –
1047.3 K | 1792 kg/m3 | –
1047.4 K | 1791 kg/m3 | –
1047.6 K | 1791 kg/m3 | –
1048 K | 1791 kg/m3 | –
1048.1 K | 1788 kg/m3 | –
1048.4 K | 1786 kg/m3 | –
1048.6 K | 1790 kg/m3 and 1786 kg/m3 | –
1048.8 K | 1788 kg/m3 | –
1049.4 K | 1789 kg/m3 | –
1049.5 K | 1789 kg/m3 | –
1049.6 K | 1786 kg/m3 | –
1049.7 K | 1785 kg/m3 | –
1049.9 K | 1789 kg/m3 | –
1050.5 K | 1788 kg/m3 and 1785 kg/m3 | –
1050.6 K | 1784 kg/m3 | –
1051.2 K | 1787 kg/m3 | –
1051.3 K | 1787 kg/m3 | –
1051.5 K | 1787 kg/m3 and 1783 kg/m3 and 1784 kg/m3 | –
1051.6 K | 1787 kg/m3 and 1782 kg/m3 | –
1052 K | 1783 kg/m3 | –
1052.2 K | 1786 kg/m3 and 1782 kg/m3 | –
1052.7 K | 1786 kg/m3 | –
1053.2 K | 1782 kg/m3 | –
1053.4 K | 1786 kg/m3 | –
1053.5 K | 1786 kg/m3 | –
1053.7 K | 1786 kg/m3 | –
1053.9 K | 1782 kg/m3 | –
1054.4 K | 1785 kg/m3 | –
1054.7 K | 1784 kg/m3 | –
1055.3 K | 1784 kg/m3 | –
1055.6 K | 1784 kg/m3 | –
1056 K | 1784 kg/m3 | –
1056.1 K | 1783 kg/m3 | –
1056.3 K | 1783 kg/m3 | –
1056.4 K | 1783 kg/m3 | –
1057.3 K | 1782 kg/m3 | –
1057.7 K | 1782 kg/m3 | –
1057.9 K | 1781 kg/m3 | –
1058.1 K | 1781 kg/m3 | –
1059.2 K | 1781 kg/m3 | –
1059.3 K | 1780 kg/m3 | –
1059.5 K | 1780 kg/m3 | –
1060.2 K | 1779 kg/m3 and 1780 kg/m3 | –
1060.5 K | – | 1796 kg/m3
1060.8 K | – | 1796 kg/m3
1061.1 K | 1778 kg/m3 | 1796 kg/m3
1061.2 K | 1779 kg/m3 | –
1061.3 K | 1778 kg/m3 | –
1061.5 K | 1779 kg/m3 | –
1061.6 K | 1777 kg/m3 | 1796 kg/m3
1061.9 K | – | 1795 kg/m3
1062.2 K | – | 1795 kg/m3
1062.5 K | – | 1795 kg/m3
1062.8 K | 1777 kg/m3 | –
1062.9 K | – | 1795 kg/m3
1063.2 K | 1776 kg/m3 and 1777 kg/m3 | –
1063.3 K | – | 1794 kg/m3
1063.6 K | – | 1794 kg/m3
1063.7 K | 1776 kg/m3 | –
1064.1 K | 1775 kg/m3 | 1794 kg/m3
1064.4 K | – | 1794 kg/m3
1064.6 K | 1775 kg/m3 | –
1064.7 K | – | 1793 kg/m3
1065.2 K | – | 1793 kg/m3
1065.3 K | 1775 kg/m3 | –
1065.5 K | – | 1792 kg/m3
1065.8 K | 1774 kg/m3 | –
1066 K | 1774 kg/m3 | 1792 kg/m3
1066.3 K | 1775 kg/m3 | –
1066.4 K | – | 1792 kg/m3
1066.7 K | – | 1792 kg/m3
1066.9 K | 1774 kg/m3 | –
1067 K | 1773 kg/m3 | –
1067.2 K | 1773 kg/m3 | 1791 kg/m3
1067.4 K | – | 1791 kg/m3
1067.7 K | 1772 kg/m3 | –
1067.9 K | – | 1791 kg/m3
1068.2 K | – | 1790 kg/m3
